Measured values taken from patent US10793563B2, “GCN2 inhibitors and uses thereof” (Merck Patent GmbH, priority 2018, dated 2020).

Each compound was assayed against GCN2 kinase (Homo sapiens (Human), UniProt Q9P2K8) (assay: GCN2 Enzyme Inhibition Assay (Transcreener ADP2 fluorescence polarization)). Conditions: 280 μM ATP, 200 μM (RS)7 peptide, 4 nM GCN2, 25° C.
Format: biochemical
Procedure, shortened: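 Transcreener ADP2 fluorescence polarization detection of ADP from 4 nM GCN2 with (RS)7 substrate in 25 mM Tris-HCl pH 7.5, 50 mM NaCl, 10 mM MgCl2, 1 mM DTT. Compound pre-incubated with enzyme 10 min at 25 °C; reaction started by ATP, run 1 h at 25 °C. IC50 and Ki(app) by tight-binding fit.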

Sequence of GCN2 kinase (Q9P2K8 whole entry): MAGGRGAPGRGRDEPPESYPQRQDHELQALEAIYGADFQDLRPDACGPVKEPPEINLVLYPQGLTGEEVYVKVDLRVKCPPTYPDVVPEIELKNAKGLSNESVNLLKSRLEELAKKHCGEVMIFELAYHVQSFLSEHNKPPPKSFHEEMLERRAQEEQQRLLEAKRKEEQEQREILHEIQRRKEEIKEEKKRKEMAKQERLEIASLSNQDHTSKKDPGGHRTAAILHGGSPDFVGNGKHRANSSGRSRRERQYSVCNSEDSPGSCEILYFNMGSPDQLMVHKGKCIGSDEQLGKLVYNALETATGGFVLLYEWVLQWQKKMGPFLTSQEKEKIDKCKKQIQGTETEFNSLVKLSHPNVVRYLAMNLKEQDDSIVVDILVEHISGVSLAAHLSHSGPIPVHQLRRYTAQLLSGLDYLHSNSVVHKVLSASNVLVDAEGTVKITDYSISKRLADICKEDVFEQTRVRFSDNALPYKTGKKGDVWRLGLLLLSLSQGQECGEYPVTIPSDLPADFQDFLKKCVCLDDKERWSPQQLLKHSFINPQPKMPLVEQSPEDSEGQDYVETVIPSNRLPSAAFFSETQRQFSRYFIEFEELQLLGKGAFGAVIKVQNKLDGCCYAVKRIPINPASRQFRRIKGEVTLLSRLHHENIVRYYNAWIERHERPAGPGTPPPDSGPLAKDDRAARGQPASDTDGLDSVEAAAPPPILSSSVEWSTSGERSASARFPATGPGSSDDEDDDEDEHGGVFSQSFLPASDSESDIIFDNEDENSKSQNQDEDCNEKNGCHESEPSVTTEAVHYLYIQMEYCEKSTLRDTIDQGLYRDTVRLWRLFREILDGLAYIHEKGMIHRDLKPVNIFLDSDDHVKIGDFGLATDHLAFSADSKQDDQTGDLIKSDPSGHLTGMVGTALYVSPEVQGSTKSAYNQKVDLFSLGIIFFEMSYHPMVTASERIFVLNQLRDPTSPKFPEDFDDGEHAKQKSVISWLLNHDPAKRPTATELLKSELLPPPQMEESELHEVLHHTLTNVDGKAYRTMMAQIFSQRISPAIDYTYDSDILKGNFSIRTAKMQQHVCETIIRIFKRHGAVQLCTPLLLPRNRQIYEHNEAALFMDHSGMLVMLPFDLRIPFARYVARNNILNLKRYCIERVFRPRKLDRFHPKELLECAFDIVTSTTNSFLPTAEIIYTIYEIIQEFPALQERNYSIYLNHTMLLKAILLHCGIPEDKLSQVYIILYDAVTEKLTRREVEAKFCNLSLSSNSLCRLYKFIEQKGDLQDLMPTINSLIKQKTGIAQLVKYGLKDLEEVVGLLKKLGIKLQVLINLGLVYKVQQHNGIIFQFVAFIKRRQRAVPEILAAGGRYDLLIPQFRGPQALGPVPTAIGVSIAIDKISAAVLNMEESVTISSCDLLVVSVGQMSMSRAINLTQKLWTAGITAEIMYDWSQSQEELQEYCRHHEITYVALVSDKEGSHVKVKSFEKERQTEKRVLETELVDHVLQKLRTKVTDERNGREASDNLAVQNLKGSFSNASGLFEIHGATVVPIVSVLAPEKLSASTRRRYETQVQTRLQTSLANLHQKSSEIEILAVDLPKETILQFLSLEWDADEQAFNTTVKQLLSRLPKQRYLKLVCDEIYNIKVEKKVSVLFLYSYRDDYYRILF

Row | Structure (SMILES) | IC50
1 | CS(=O)(=O)NCC1C[C@@H]2CC[C@H]1N(c1ccnc(-c3cnc4ccc(C(F)F)cn34)n1)C2 (stereo partly drawn) [I-394, N-(((1R,4S)-2-(2-(6-(difluoromethyl)imidazo[1,2-a]pyridin-3-yl)pyrimidin-4-yl)-2-azabicyclo[2.2.2]octan-6-yl)methyl)methanesulfonamide] | 0.1 to 1 µM
2 | NC(=O)[C@H]1CN(c2ccnc(-c3cnc4cc(F)c(Cl)cn34)n2)CCN1C1CC1 [I-425, (R)-4-(2-(6-chloro-7-fluoroimidazo[1,2-a]pyridin-3-yl)pyrimidin-4-yl)-1-cyclopropylpiperazine-2-carboxamide] | 0.1 to 1 µM
3 | CC1C(C(N)=O)NCCN1c1ccnc(-c2cnc3cc(F)c(C4CC4)cn23)n1 (centres unmarked) [I-427, 4-(2-(6-cyclopropyl-7-fluoroimidazo[1,2-a]pyridin-3-yl)pyrimidin-4-yl)-3-methylpiperazine-2-carboxamide] | 0.01 to 0.1 µM
4 | Cc1[nH]ncc1[C@H]1CN(c2ccnc(-c3cnc4cc(F)c(C5CC5)cn34)n2)C[C@H](C)O1 [I-428, (2S,6S)-4-(2-(6-cyclopropyl-7-fluoroimidazo[1,2-a]pyridin-3-yl)pyrimidin-4-yl)-2-methyl-6-(5-methyl-1H-pyrazol-4-yl)morpholine] | 0.01 to 0.1 µM
5 | Cc1[nH]ncc1[C@@H]1CN(c2ccnc(-c3cnc4cc(F)c(C5CC5)cn34)n2)C[C@H](C)O1 [I-429, (2S,6R)-4-(2-(6-cyclopropyl-7-fluoroimidazo[1,2-a]pyridin-3-yl)pyrimidin-4-yl)-2-methyl-6-(5-methyl-1H-pyrazol-4-yl)morpholine] | < 0.01 µM

Further lines, results first:

Row | IC50 | Structure (SMILES)
6 | 0.01 to 0.1 µM | CC1CN(c2ccnc(-c3cnc4ccc(C(F)(F)F)cn34)n2)CCC1n1cccn1 (centres unmarked) [I-379, 3-(4-(3-methyl-4-(1H-pyrazol-1-yl)piperidin-1-yl)pyrimidin-2-yl)-6-(trifluoromethyl)imidazo[1,2-a]pyridine]
7 | < 0.01 µM | CC1C(C(N)=O)NCCN1c1ccnc(-c2cnc3ccc(C(F)(F)F)cn23)n1 (centres unmarked) [I-380, 3-methyl-4-{2-[6-(trifluoromethyl)imidazo[1,2-a]pyridin-3-yl]pyrimidin-4-yl}piperazine-2-carboxamide]
8 | 0.1 to 1 µM | OCc1cn(C2CCCN(c3ccnc(-c4cnc5ccc(C(F)(F)F)cn45)n3)C2)nn1 (centres unmarked) [I-382, (1-(1-(2-(6-(trifluoromethyl)imidazo[1,2-a]pyridin-3-yl)pyrimidin-4-yl)piperidin-3-yl)-1H-1,2,3-triazol-4-yl)methanol]
9 | 0.1 to 1 µM | C[C@@H]1CN(c2ccnc(-c3cnc4ccc(C(F)(F)F)cn34)n2)C[C@H](C)N1CC(F)(F)F [I-410, 3-(4-(cis-3,5-dimethyl-4-(2,2,2-trifluoroethyl)piperazin-1-yl)pyrimidin-2-yl)-6-(trifluoromethyl)imidazo[1,2-a]pyridine]
10 | 0.1 to 1 µM | FC(F)(F)c1ccc2ncc(-c3nccc(N4CCOC5(CNC5)C4)n3)n2c1 [I-412, 8-(2-(6-(trifluoromethyl)imidazo[1,2-a]pyridin-3-yl)pyrimidin-4-yl)-5-oxa-2,8-diazaspiro[3.5]nonane]
11 | 0.01 to 0.1 µM | N#CC1(C(=O)N2CCN(c3ccnc(-c4cnc5ccc(C(F)(F)F)cn45)n3)CC2c2cn[nH]c2)CC1 (centres unmarked) [I-432, 1-(2-(1H-pyrazol-4-yl)-4-(2-(6-(trifluoromethyl)imidazo[1,2-a]pyridin-3-yl)pyrimidin-4-yl)piperazine-1-carbonyl)cyclopropane-1-carbonitrile]
12 | 0.01 to 0.1 µM | N#CC1(C(=O)n2cc([C@@H]3CN(c4ccnc(-c5cnc6ccc(C(F)(F)F)cn56)n4)CCN3)cn2)CC1 [I-433, (R)-1-(4-(4-(2-(6-(trifluoromethyl)imidazo[1,2-a]pyridin-3-yl)pyrimidin-4-yl)piperazin-2-yl)-1H-pyrazole-1-carbonyl)cyclopropane-1-carbonitrile]
13 | 0.1 to 1 µM | C[C@@H]1[C@H](C(N)=O)NCCN1c1ccnc(-c2cnc3ccc(C(F)(F)F)cn23)n1 [I-434, (2R,3R)-3-methyl-4-(2-(6-(trifluoromethyl)imidazo[1,2-a]pyridin-3-yl)pyrimidin-4-yl)piperazine-2-carboxamide]

Same assay, conditions: Ki(app); 280 μM ATP, 200 μM (RS)7 peptide, 4 nM GCN2, 25° C.

Row | Ki | Structure (SMILES)
14 | < 0.01 µM | CC1C(C(N)=O)NCCN1c1ccnc(-c2cnc3ccc(C(F)(F)F)cn23)n1 (centres unmarked) [I-380, 3-methyl-4-{2-[6-(trifluoromethyl)imidazo[1,2-a]pyridin-3-yl]pyrimidin-4-yl}piperazine-2-carboxamide]
